Results taken from PubChem BioAssay (NCI).
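The compound was tested at five concentrations on cells cultured in 96-well plates, with a 48-hour exposure period. GI50 is the concentration that inhibits growth by half. TGI is the concentration that stops growth completely.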

How the values were obtained:
Experiment in all cases: inhibition of tumour cell growth, NCI panel, 48 h
HT29 colon = tested on: HT29 colon
SK-MEL-5 melanoma = tested on: SK-MEL-5 melanoma
SNB-75 CNS = tested on: SNB-75 CNS
786-0 renal = tested on: 786-0 renal
HCT-15 colon = tested on: HCT-15 colon
A549 NSCLC = tested on: A549 NSCLC
UACC-257 melanoma = tested on: UACC-257 melanoma
CCRF-CEM leukemia = tested on: CCRF-CEM leukemia
HL-60(TB) leukemia = tested on: HL-60(TB) leukemia
MCF7 breast = tested on: MCF7 breast

Row | SMILES | TGI (HT29 colon) [µM] | TGI (SK-MEL-5 melanoma) [µM] | TGI (SNB-75 CNS) [µM] | TGI (786-0 renal) [µM] | TGI (HCT-15 colon) [µM] | TGI (A549 NSCLC) [µM] | TGI (UACC-257 melanoma) [µM] | TGI (CCRF-CEM leukemia) [µM] | TGI (HL-60(TB) leukemia) [µM] | GI50 (HT29 colon) [µM] | GI50 (SK-MEL-5 melanoma) [µM] | GI50 (SNB-75 CNS) [µM] | GI50 (786-0 renal) [µM] | GI50 (HCT-15 colon) [µM] | GI50 (A549 NSCLC) [µM] | GI50 (UACC-257 melanoma) [µM] | GI50 (HL-60(TB) leukemia) [µM] | GI50 (CCRF-CEM leukemia) [µM] | GI50 (MCF7 breast) [µM] | TGI (MCF7 breast) [µM]
1 | CN(C)CCNc1nc(-c2cccs2)cc(-c2cccs2)n1 | 22.2 | 29.6 | 68.2 | 30.4 | 33.2 | 32.4 | 24.2 | 24.1 | – | – | – | – | – | – | – | – | – | – | – | –
2 | COC(=O)Cc1nc2ccccc2o1 | > 100 | > 100 | > 100 | > 100 | > 100 | > 100 | > 100 | > 100 | 41.4 | – | – | – | – | – | – | – | – | – | – | –
3 | CCOC(=O)NC(=O)c1c[nH]c(=O)[nH]c1=O | > 100 | > 100 | > 100 | > 100 | > 100 | > 100 | > 100 | > 100 | > 100 | – | – | – | – | – | – | – | – | – | – | –
4 | Cc1ccc(S(=O)OC23CC4CC(CC(C4)C2)C3)cc1 (configuration not stated) | > 100 | > 100 | > 100 | > 100 | > 100 | > 100 | > 100 | – | 44.3 | – | – | – | – | – | – | – | – | – | – | –
5 | O=C1c2ccn(CCCCN3CCC(O)CC3)c2C(=O)c2c1c(O)c1ccccc1c2O | > 100 | 96.2 | > 61.2 | 31.1 | 8.83 | 68.9 | > 64.1 | – | – | 46.9 | 16.6 | 42.6 | 13.1 | 2.68 | 26.2 | 17.3 | – | – | – | –
6 | COc1ccc(C(=O)O/N=C2/CCC/C2=C\c2ccccc2)cc1 | > 100 | > 100 | > 92.9 | > 100 | > 100 | > 100 | > 100 | > 100 | > 100 | – | – | – | – | – | – | – | – | – | – | –
7 | CN(C)CC1CCCC/C1=N/OC(=O)c1ccc(Cl)c(Cl)c1 (configuration not stated) | > 100 | > 100 | > 100 | > 100 | > 100 | > 100 | > 100 | > 100 | > 100 | – | – | – | – | – | – | – | – | – | – | –
8 | CO[C@H](C(=O)O)[C@@H]1Cc2cc3cc(OC4CC(OC5CC(O)C(O)C(C)O5)C(O)C(C)O4)c(C)c(O)c3c(O)c2C(=O)[C@H]1OC1CC(OC2CC(OC3CC(C)(O)C(O)C(C)O3)C(O)C(C)O2)C(O)C(C)O1 (some centres not stated) | > 32.5 | 0.868 | 0.741 | > 32.5 | > 32.5 | > 32.5 | > 32.5 | > 32.5 | > 32.5 | 0.305 | 0.159 | 0.128 | 0.213 | 1.66 | 0.257 | 0.38 | 1.06 | 0.33 | – | –
9 | OCC(O)C(OC1OC(CO)C(O)C(O)C1O)c1nn(-c2ccccc2)c2nc3cc(Cl)ccc3nc12 (configuration not stated) | > 100 | – | > 100 | > 100 | > 100 | – | > 100 | > 100 | – | – | – | – | – | – | – | – | – | – | – | –
10 | COc1ccc(C2=NOP(c3ccccc3)(c3ccccc3)(c3ccccc3)C2)cc1 | > 48.5 | 28.8 | > 89.4 | > 53.4 | > 53 | > 76.1 | 99.2 | 39.6 | 14 | – | – | – | – | – | – | – | – | – | – | –
11 | Cc1ccc(NC(=O)CCC(=O)C(C#N)c2ccccc2)cc1C (configuration not stated) | > 100 | > 100 | – | > 100 | > 100 | > 100 | > 100 | > 100 | > 100 | – | – | – | – | – | – | – | – | – | – | –
12 | C[N+](C)(C)CC1CCCC/C1=N\O (configuration not stated) | > 100 | – | – | > 100 | > 100 | > 100 | > 100 | > 100 | > 100 | – | – | – | – | – | – | – | – | – | – | –
13 | O=C(/C(=C/c1ccccc1)c1ccccc1)N1c2ccccc2CC1c1c[nH]c2ccccc12 (configuration not stated) | > 100 | > 100 | > 100 | > 100 | > 100 | > 100 | > 100 | > 100 | > 100 | – | – | – | – | – | – | – | – | – | – | –
14 | O=C(NCCCCOCC#Cc1ccccc1C#CCS(=O)(=O)c1ccccc1)c1cc2ccccc2[nH]1 | > 50 | 16.3 | 27.3 | 34.8 | 15.7 | > 50 | > 50 | – | – | 13.7 | 7.86 | 12.5 | 12.8 | 7.21 | 16.8 | 22.4 | – | – | 8.91 | > 26.1
15 | C#CCN(C)C(=O)N(CC#C)N=O | > 100 | > 100 | > 100 | > 100 | > 100 | > 100 | > 100 | > 100 | > 100 | – | – | – | – | – | – | – | – | – | – | –
16 | Nc1c(-c2nc3ccccc3[nH]2)sc(=S)n1-c1ccc(Cl)cc1 | 42.6 | 67.6 | 47.6 | 36.7 | 61.8 | 51.1 | 65.6 | > 100 | > 100 | – | – | – | – | – | – | – | – | – | – | –
